Reference: PubChem BioAssay AID2823 (Broad Institute, 2010)
The source made the active and inactive calls. How the calls were made is not given here.

Target: RanGTP-importin-beta complex (human Ran / KPNB1)
Assay: disruptors of RanGTP/KPNB1 binding – biochemical, FRET, CFP/YFP, cell-free homogeneous, confirmation (AID 2823)
Settings: CFP-Ran/YFP-importin-beta FRET ratio

| SMILES | IC50 |
| --- | --- |
| Cc1cc(C)c(C#N)c(Nc2ccccc2C)n1 | > 50 µM (inactive) |
| COc1ccc(-c2ccc(-c3noc(-c4ccccc4C)n3)c(OC)n2)cc1 | > 50 µM (inactive) |
| O=c1cc(N2CCC(Cc3ccccc3)CC2)[nH]c(=O)n1C1CCCCC1 | > 50 µM (inactive) |
| CC(=O)c1ccc(-c2cccs2)s1 | 34.7 µM |
| Oc1c(C(Nc2nc3ccccc3s2)c2ccco2)ccc2cccnc12 (configuration not stated) | > 50 µM (inactive) |
| Cc1ccc(C(=O)Nc2ncc(Cc3ccc(F)cc3)s2)o1 | > 50 µM (inactive) |
| Cc1cnc(=O)[nH]c1SCC(=O)c1ccc(F)cc1 | > 50 µM (inactive) |
| COc1ccc2c(C)c(C(=O)N3CC[C@@H](N4CCC(O)CC4)[C@H](O)C3)oc2c1 | > 50 µM (inactive) |
| CC(=O)N1CCc2c(sc(NC(=O)CCS(=O)(=O)c3ccc(C)cc3)c2C(N)=O)C1 | 30.7 µM |
| C=CCN1C(=O)/C(=C\c2ccc(OC(=O)c3ccco3)c(OC)c2)SC1=S | > 50 µM (inactive) |
| CC(=O)Cc1nsc(NC(=O)c2ccc(-c3cccc(C(F)(F)F)c3)o2)n1 | > 50 µM (inactive) |
| O=C(Cc1ccccc1C(=O)O)Nc1cccc2ccccc12 | > 50 µM (inactive) |
| Cc1sc2ncn(CC(=O)NCCCC(=O)N3CCN(Cc4ccc5c(c4)OCO5)CC3)c(=O)c2c1C | > 50 µM (inactive) |
| O=C(Oc1ccc2c3c(c(=O)oc2c1)CCCC3)c1ccco1 | 16 µM |
| S=c1[nH]c2ccc3ccccc3c2[nH]1 | > 50 µM (inactive) |
| CC(C)C1C2=C(CC(C)(C)CC2=O)ON1c1ccccc1 (configuration not stated) | > 50 µM (inactive) |
| CCCc1cc(=O)oc2c(CN3CCN(C)CC3)c(O)c(Cl)cc12 | 28.4 µM |
| CCOCCCNC(=O)NC(=O)CN1CCN(S(=O)(=O)c2ccc3c(c2)OCCO3)CC1 | > 50 µM (inactive) |
| NC(=O)CN(Cc1ccccc1)S(=O)(=O)c1ccc2c(c1)OCCO2 | > 50 µM (inactive) |
| Cc1ccc(NC(=O)COC(=O)Cc2ccsc2)c(C)c1 | > 50 µM (inactive) |
| Cc1cc(/C=C2\C(=O)NC(=O)N(c3ccc(F)cc3)C2=O)c(C)n1-c1ccc(C(=O)O)cc1 | > 50 µM (inactive) |

| SMILES | IC50 |
| --- | --- |
| CCN1C2=C(C(=O)CCC2)C(c2ccc(O)c(Br)c2)C2=C1CCCC2=O | 7.86 µM |
| Cc1ccc(CNC(=O)c2cccnc2)cc1 | > 50 µM (inactive) |
| Cc1ccc(N=Cc2cc3c(cc2O)OC(N)=C(C#N)C3c2ccccc2)cc1 (configuration not stated) | > 50 µM (inactive) |
| COc1ccc(-c2nc3ccc(C(=O)NCCCN4CCOCC4)cc3nc2-c2ccc(OC)cc2)cc1 | 46.4 µM |
| Oc1c(C=Nc2ccccc2)sc2ccccc12 | 27.6 µM |
| CC1CCN(c2nc3ccccc3nc2C(C#N)C(=O)OC2CCCCC2)CC1 (configuration not stated) | > 50 µM (inactive) |
| CCN(CC)Cc1c(CC(C)C)oc(C)c1C(=O)O | > 50 µM (inactive) |
| CN(C)c1nc(-c2ccccc2)cc(C(F)(F)F)c1C#N | 10.7 µM |
| COC(=O)[C@@H]1[C@H]2C[C@H]3c4[nH]c5ccccc5c4CCN3C[C@@H]2CC[C@@H]1O | > 50 µM (inactive) |
| CCOc1ccc(OCc2ccc(C(=O)N(CC)CC)cc2)cc1 | > 50 µM (inactive) |
| CC(C)Sc1nc(N2CCOCC2)c2c3c(sc2n1)COC(C)(C)C3 | > 50 µM (inactive) |
| O=C1CCCN2N=C(SCC(=O)N3N=C(c4ccc(Br)cc4)CC3c3ccc(F)cc3)SC2=N1 (configuration not stated) | > 50 µM (inactive) |
| Cc1cc2c(c(=O)n1Cc1cccnc1)C(Cc1ccccc1)C(C#N)=C(N)O2 (configuration not stated) | > 50 µM (inactive) |
| COc1ccc(N2Cc3ccccc3/C2=N\C(=O)Nc2ccccc2)cc1 | > 50 µM (inactive) |
| CC(C)CCN(CCC(C)C)CC(O)Cn1c2ccccc2c(=O)c2ccccc21 (configuration not stated) | 6.71 µM |
| Cc1ccc(-n2c(=O)c(C#N)cc3c(=O)n4ccccc4nc32)cc1C | > 50 µM (inactive) |
| Cc1ccc(S(=O)(=O)NCCN(CCNS(=O)(=O)c2ccc(C)cc2)S(C)(=O)=O)cc1 | > 50 µM (inactive) |
| COc1ccc(/C=N/NC(=O)c2sc3nc(C)cc(C)c3c2N)cc1 | 21 µM |
| Nc1c(C(=O)NCc2ccccc2)c2nc3ccccc3nc2n1-c1ccc2c(c1)OCO2 | 15.2 µM |
| CCN1CCc2nc(NC(=O)CC(c3ccccc3)c3ccccc3)sc2C1 | 23.2 µM |
| COc1ccc(NC(=O)c2ccc3snnc3c2)cc1 | > 50 µM (inactive) |

| SMILES | IC50 |
| --- | --- |
| O=c1cn[nH]c2ccccc12 | > 50 µM (inactive) |
| CC(C)Sc1nc(N2CCOCC2)c2c(c1C#N)CC(C)(C)N(C)C2 | 46.2 µM |
| COc1ccc(C2NC(=S)NC3=C2CCCC3=C2SCCS2)cc1 (configuration not stated) | > 50 µM (inactive) |
| COCCn1c(=NC(=O)c2ccc3c(c2)OCO3)c(C#N)cc2c(=O)n3cccc(C)c3nc21 | > 50 µM (inactive) |
| CCOC(=O)N1CCN(/C=C(\C#N)c2nc3ccccc3s2)CC1 | > 50 µM (inactive) |
| O=C(/C=C/c1cccs1)Nc1ccc([N+](=O)[O-])cc1 | > 50 µM (inactive) |
| COC(=O)c1sccc1NC(=O)c1csc(C)c1 | > 50 µM (inactive) |
| CCOCCCNC(=S)NCCNc1nc2c(C)cccc2cc1C#N | 36.1 µM |
| COCCCNC(=O)/C(C#N)=C/c1c(N2CCN(c3ccccc3)CC2)nc2ccccn2c1=O | 25.9 µM |
| Cc1ccc2nc(NCCNC(=O)c3ccccc3)c(C#N)cc2c1 | 3.62 µM |
| O=C1NC(c2cccc([N+](=O)[O-])c2)Oc2ccccc21 (configuration not stated) | > 50 µM (inactive) |
| O=C(NNC(=S)NC(=O)c1ccccc1[N+](=O)[O-])c1ccccc1O | > 50 µM (inactive) |
| CC(C)(C)Nc1nc(SCC(=O)Nc2ccccc2)nc(N2CCOCC2)n1 | > 50 µM (inactive) |
| Oc1nc(Nc2ccccc2)sc1/C=C1\C=Nc2ccccc21 | > 50 µM (inactive) |
| COc1ccc(Cn2c(O)c(C=Nc3ccc(OC)cc3)c3ccccc3c2=O)cc1 | > 50 µM (inactive) |
| COc1ccc2cc(-c3nc4ccccc4n3C)c(=O)oc2c1 | 19.1 µM |
| COCCOC(=O)C1=C(C)NC(=O)NC1c1cccc2ccccc12 (configuration not stated) | > 50 µM (inactive) |
| COC(=O)c1n[nH]c2ccccc12 | 47.7 µM |
| O=C(NC1CCCCCC1)C(=S)NCCc1ccccc1 | > 50 µM (inactive) |
| Cc1cccc(NC(=O)c2cc(S(=O)(=O)N(C)c3ccc(F)cc3)ccc2Cl)n1 | > 50 µM (inactive) |
| O=C1C(=O)N(CCS(=O)(=O)c2ccccc2)c2ccc(Cl)cc21 | > 50 µM (inactive) |

| SMILES | IC50 |
| --- | --- |
| CCOC(=O)C1(CCc2ccccc2)CCN(Cc2ccccn2)CC1 | > 50 µM (inactive) |
| CC(=O)O/N=C/c1c(Cl)n(C)c2ccccc12 | > 50 µM (inactive) |
| CC1CN(Cc2cc(=O)oc3cc(O)ccc23)CC(C)O1 (configuration not stated) | 19 µM |
| Fc1ccccc1N1CCN(c2nc3ccccc3n3nnnc23)CC1 | 37.8 µM |
| Cc1cccc(C)c1NC(=O)C1=C(O)c2sccc2N(C)S1(=O)=O | 4.36 µM |
| CCC(=O)N(CC(=O)Nc1sc(C)c(C)c1C(N)=O)C1CCCC1 | > 50 µM (inactive) |
| CCOC(=O)c1c(N)n(CCN2CCCCC2)c2nc3ccccc3nc12 | 32.3 µM |
| CSc1nsc(/C=C/Nc2ccc(C)cc2)c1C#N | > 50 µM (inactive) |
| CCCN(CCO)Cc1cccc(Br)c1 | > 50 µM (inactive) |
| Cc1noc(C)c1C(=O)Nc1sc2c(c1C(N)=O)CCC2 | > 50 µM (inactive) |
| O=C1NC(=S)S/C1=C1\Sc2ccccc2N1CCCS(=O)(=O)O | 12.5 µM |
| O=c1cc(N2CCc3ccccc3C2)[nH]c(=O)n1C1CCCCC1 | > 50 µM (inactive) |
| COC(=O)Cn1c(=O)c2c(nc3n2CCCN3CCc2ccccc2)n(C)c1=O | > 50 µM (inactive) |
| Cc1cccc(C(=O)Nc2sc(C)c(-c3ccccc3)c2C#N)c1 | > 50 µM (inactive) |
| c1ccc(-n2nnnc2-c2cnc(-c3cccnc3)nc2-c2cccs2)cc1 | > 50 µM (inactive) |
| CCOC(=O)N1CCN(c2cc(=O)n(Cc3ccc(F)cc3)c(=O)[nH]2)CC1 | > 50 µM (inactive) |
| O=c1cc(CN2CCN(S(=O)(=O)c3ccc4c(c3)OCCO4)CC2)c2ccc(O)cc2o1 | 10.9 µM |
| CC(C)n1c(O)c(C2c3cc(Cl)ccc3Oc3[nH]c(=O)n(C(C)C)c(=O)c32)c(=O)[nH]c1=O (configuration not stated) | > 50 µM (inactive) |
| Cc1nc2[nH]c(=O)c3c(n2n1)NC1=C(C(=O)CC(C)(C)C1)C3c1ccc(F)cc1 (configuration not stated) | 2.73 µM |
